Experimental data as given in US20060069132A1, “Azolecarboxamide herbicides” (priority 2004, published 2006).

How the values were obtained:
[1] = tested on: lambsquarters; test: Test B pre-/postemergence herbicide test; type: in vivo, Chenopodium album; details: for Lambsquarters plant response rating: postemergence
Method in brief: (§1)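 Evaluation is visual, comparing treated with control plants on a scale where 0 means no effect and 100 means full control. Treatments were preemergence, or postemergence on seedlings 2–18 cm tall, and held 13–15 days in the greenhouse.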

[2] = tested on: cocklebur; test: Test B pre-/postemergence herbicide test; type: in vivo, Xanthium strumarium; details: for Cocklebur plant response rating: postemergence
Method in brief: (§2)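 Greenhouse pot assay with simultaneous preemergence (treated seed) and postemergence (2–18 cm seedlings) applications of surfactant-containing, non-phytotoxic solvent formulations. Response scored visually 13–15 days later on a 0–100 scale, 100 meaning complete control.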

[3] = tested on: barnyardgrass; test: Test B flooded paddy test; type: in vivo, Echinochloa crus-galli; details: 1000 g ai/ha, scale 0 to 100 (0 no effect, 100 complete control)
Method in brief: (§3)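 Greenhouse test; postemergence application to plants at 1–4 leaves (2–18 cm); paddy species at 2 leaves; evaluated visually vs controls at 13–15 days; scale 0–100 (100 = complete control).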

[4] = tested on: corn; test: Test B pre-/postemergence herbicide test; type: in vivo, Zea mays; details: for Corn plant response rating: postemergence
Method in brief: as §1

[5] = tested on: Surinam grass; test: Test B pre-/postemergence herbicide test; type: in vivo, Urochloa decumbens; details: for Surinam Grass plant response rating: postemergence
Method in brief: as §1

[6] = tested on: redroot pigweed; test: Test A pre-/postemergence herbicide test; type: in vivo, Amaranthus retroflexus
Method in brief: (§4)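 Seeds sown in sandy loam received a preemergence directed soil spray of compound in non-phytotoxic solvent with surfactant; postemergence plants (2–10 cm, one- to two-leaf stage) were sprayed to runoff at the same time. After ~10 days in greenhouse, injury was rated visually versus untreated controls (0 = no effect, 100 = complete control).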

[7] = tested on: ducksalad; test: Test B flooded paddy test; type: in vivo, Heteranthera limosa; details: 1000 g ai/ha, scale 0 to 100 (0 no effect, 100 complete control)
Method in brief: as §3

[8] = tested on: giant foxtail; test: Test B pre-/postemergence herbicide test; type: in vivo, Setaria faberi; details: for Foxtail, Giant plant response rating: postemergence
Method in brief: as §1

[9] = tested on: morningglory; test: Test A pre-/postemergence herbicide test; type: in vivo, Ipomoea spp.
Method in brief: as §4

[10] = tested on: rice; test: Test B flooded paddy test; type: in vivo, Oryza sativa; details: 1000 g ai/ha, scale 0 to 100 (0 no effect, 100 complete control)
Method in brief: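 Each value is a visual 0–100 response rating taken against controls 13 to 15 days after treatment in the greenhouse. Plants received formulated chemical postemergence at the 1- to 4-leaf stage or, in flooded paddy, at the 2-leaf stage.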

[11] = tested on: velvetleaf; test: Test A pre-/postemergence herbicide test; type: in vivo, Abutilon theophrasti
Method in brief: as §4

[12] = tested on: morningglory; test: Test B pre-/postemergence herbicide test; type: in vivo, Ipomoea coccinea; details: for Morningglory plant response rating: postemergence
Method in brief: as §2

[13] = tested on: blackgrass; test: Test B postemergence herbicide test; type: in vivo, Alopecurus myosuroides; details: postemergence
Method in brief: as §3

[14] = tested on: barnyardgrass; test: Test A pre-/postemergence herbicide test; type: in vivo, Echinochloa crus-galli
Method in brief: as §4

[15] = tested on: barnyardgrass; test: Test B pre-/postemergence herbicide test; type: in vivo, Echinochloa crus-galli; details: for Barnyardgrass plant response rating: postemergence
Method in brief: as §2

[16] = tested on: large crabgrass; test: Test B pre-/postemergence herbicide test; type: in vivo, Digitaria sanguinalis; details: for Crabgrass, Large plant response rating: postemergence
Method in brief: as §1

[17] = tested on: large crabgrass; test: Test A pre-/postemergence herbicide test; type: in vivo, Digitaria sanguinalis
Method in brief: as §4

[18] = tested on: velvetleaf; test: Test B pre-/postemergence herbicide test; type: in vivo, Abutilon theophrasti; details: for Velvetleaf plant response rating: postemergence
Method in brief: as §1

[19] = tested on: pigweed; test: Test B pre-/postemergence herbicide test; type: in vivo, Amaranthus retroflexus; details: for Pigweed plant response rating: postemergence
Method in brief: as §1

[20] = tested on: small flower umbrella sedge; test: Test B flooded paddy test; type: in vivo, Cyperus difformis; details: 1000 g ai/ha, scale 0 to 100 (0 no effect, 100 complete control)
Method in brief: as §3

[21] = tested on: giant foxtail; test: Test A pre-/postemergence herbicide test; type: in vivo, Setaria faberi
Method in brief: as §4

[22] = tested on: wild oat; test: Test B postemergence herbicide test; type: in vivo, Avena fatua; details: postemergence
Method in brief: as §3

[23] = tested on: wheat; test: Test B postemergence herbicide test; type: in vivo, Triticum aestivum; set-up: key to Wheat plant response rating: 0 = no effect, 100 = complete control; details: postemergence
Method in brief: as §3

[24] = 125 g ai/ha, 0 = no effect, 100 = complete control, preemergence
[25] = 125 g ai/ha, visual rating, scale 0 (no effect) to 100 (complete control)
[26] = 500 g ai/ha, visual rating, 0 = no effect, 100 = complete control, preemergence
[27] = 500 g ai/ha, scale 0 to 100, 0 is no effect, 100 is complete control
[28] = Postemergence, 500 g ai/ha, 0 to 100 scale, 0 no effect, 100 complete control
[29] = Postemergence, 2000 g ai/ha, 0 to 100 scale, 0 no effect, 100 complete control
[30] = Preemergence, 2000 g ai/ha, visual rating, 0 to 100 scale (0 no effect, 100 complete control)
[31] = preemergence, 500 g ai/ha, visual injury, 0 to 100 scale (0 no effect, 100 complete control)

## COC(=O)c1cccc(NC(=O)c2cc(C(C)(C)C)nn2C)n1 [Compound 312]
[1]; [24]
  Lambsquarters plant response rating (0 to 100 scale): 0
[1]; [25]
  Lambsquarters plant response rating: 10
[1]; [26]
  Plant response rating, Lambsquarters: 0
[1]; [27]
  Lambsquarters plant response rating: 20
[2]; [24]
  Cocklebur plant response rating (0 to 100 scale): 0
[2]; [25]
  Cocklebur plant response rating: 0
[2]; [26]
  Plant response rating, Cocklebur: 0
[2]; [27]
  Cocklebur plant response rating: 0
[3]
  Barnyardgrass plant response rating: 0
[4]; [24]
  Corn plant response rating (0 to 100 scale): 0
[4]; [25]
  Corn plant response rating: 0
[4]; [26]
  Plant response rating, Corn: 0
[4]; [27]
  Corn plant response rating: 0
[5]; [24]
  Surinam Grass plant response rating (0 to 100 scale): 0
[5]; [25]
  Surinam Grass plant response rating: 0
[5]; [26]
  Plant response rating, Surinam Grass: 0
[5]; [27]
  Surinam Grass plant response rating: 0
[6]; [28]
  Pigweed plant response rating: 0
[6]; [29]
  Plant response rating, Pigweed: 0
[6]; [30]
  Pigweed plant response rating: 0
[6]; [31]
  Pigweed plant response rating: 0
[7]
  Ducksalad plant response rating: 0
[8]; [24]
  Foxtail, Giant plant response rating (0 to 100 scale): 0
[8]; [25]
  Foxtail, Giant plant response rating: 0
[8]; [26]
  Plant response rating, Foxtail, Giant: 0
[8]; [27]
  Foxtail, Giant plant response rating: 0
[9]; [28]
  Morningglory plant response rating: 0
[9]; [29]
  Plant response rating, Morningglory: 0
[9]; [30]
  Morningglory plant response rating: 0
[9]; [31]
  Morningglory plant response rating: 0
[10]
  Rice plant response rating: 0
[11]; [28]
  Velvetleaf plant response rating: 0
[11]; [29]
  Plant response rating, Velvetleaf: 0
[11]; [30]
  Velvetleaf plant response rating: 0
[11]; [31]
  Velvetleaf plant response rating: 0
[12]; [24]
  Morningglory plant response rating (0 to 100 scale): 0
[12]; [25]
  Morningglory plant response rating: 0
[12]; [26]
  Plant response rating, Morningglory: 0
[12]; [27]
  Morningglory plant response rating: 20
[13]; [25]
  Blackgrass plant response rating: 0
[13]; [27]
  Blackgrass plant response rating: 0
[14]; [28]
  Barnyardgrass plant response rating: 0
[14]; [29]
  Plant response rating, Barnyardgrass: 0
[14]; [30]
  Barnyardgrass plant response rating: 0
[14]; [31]
  Barnyardgrass plant response rating: 0
[15]; [24]
  Barnyardgrass plant response rating (0 to 100 scale): 0
[15]; [25]
  Barnyardgrass plant response rating: 0
[15]; [26]
  Plant response rating, Barnyardgrass: 0
[15]; [27]
  Barnyardgrass plant response rating: 0
[16]; [24]
  Crabgrass, Large plant response rating (0 to 100 scale): 0
[16]; [25]
  Crabgrass, Large plant response rating: 0
[16]; [26]
  Plant response rating, Crabgrass, Large: 0
[16]; [27]
  Crabgrass, Large plant response rating: 0
[17]; [28]
  Crabgrass, Large plant response rating: 0
[17]; [29]
  Plant response rating, Crabgrass, Large: 0
[17]; [30]
  Crabgrass, Large plant response rating: 0
[17]; [31]
  Crabgrass, Large plant response rating: 0
[18]; [25]
  Velvetleaf plant response rating: 0
[18]; [26]
  Plant response rating, Velvetleaf: 0
[18]; [27]
  Velvetleaf plant response rating: 0
[19]; [24]
  Pigweed plant response rating (0 to 100 scale): 0
[19]; [25]
  Pigweed plant response rating: 0
[19]; [26]
  Plant response rating, Pigweed: 0
[19]; [27]
  Pigweed plant response rating: 20
[20]
  Sedge, Umbrella plant response rating: 0
[21]; [28]
  Foxtail, Giant plant response rating: 0
[21]; [29]
  Plant response rating, Foxtail, Giant: 0
[21]; [30]
  Foxtail, Giant plant response rating: 0
[21]; [31]
  Foxtail, Giant plant response rating: 0
[22]; [25]
  Oat, Wild plant response rating: 0
[22]; [27]
  Oat, Wild plant response rating: 0
[23]; [25]
  Wheat plant response rating: 0
[23]; [27]
  Wheat plant response rating: 0
